The values that follow come from patent US20240148722A1, “SMALL MOLECULES THAT BIND TO TDP-43 FOR THE TREATMENT OF ALS AND RELATED DISORDERS” (Biohaven Therapeutics Ltd., priority 2021, published 2024).

This assay deals with TDP-43 1-260 (Homo sapiens, UniProt Q13148). Nature of the assay: TDP-43 alpha-screen assay with bt-TAR32. As to conditions: for IC50: bt-TAR32 0.125 nM, 3 h at room temperature, read-out: Activity (μM) in the TDP-43-DNA alpha-screen assay. The assay is classed as binding. A general note: In Alpha technology, singlet oxygen from a donor bead excites a nearby acceptor bead.
TDP-43 1-260, sequence (Q13148 1-260): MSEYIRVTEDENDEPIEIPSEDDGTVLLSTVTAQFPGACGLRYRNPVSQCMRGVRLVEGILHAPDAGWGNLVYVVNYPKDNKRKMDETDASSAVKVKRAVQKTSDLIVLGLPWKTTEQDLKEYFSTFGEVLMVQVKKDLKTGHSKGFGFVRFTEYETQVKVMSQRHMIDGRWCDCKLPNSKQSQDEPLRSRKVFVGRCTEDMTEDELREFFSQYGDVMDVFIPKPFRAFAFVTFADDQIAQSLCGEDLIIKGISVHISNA

Description: Alpha-screen assay. […] Briefly, assays contained TDP-43 1-260 (15 ng/mL, 0.27 nM), 10 mg/mL of both streptavidin donor beads and anti-GST acceptor beads with various concentrations of bt-TAR32 (˜18 to +14 in the HIV1 LTR) and test compound in a final volume of 20 mL of 25 mM Tris, 0.1% CHAPS, pH 7.4 in white, opaque low volume 384-well plates. After 3 h incubation at room temperature, the AlphaScreen signal was measured using a Synergy 2 plate reader (Biotek, Winooski, VT). […] Nonspecific binding was determined in the presence of 10 mM bt-TDP43 and was less than 10% of total binding. IC50 values were obtained from nonlinear regression fits of the data to a one-site binding model using Graph Pad Prism, version 5.0 (GraphPad Software, San Diego, CA). Comparison of competitive inhibition and mixed type inhibition models were evaluated using the F-test on global fits of the data also in Graph Pad Prism, version 5.0.

Turning to “6-(4-(2-(pyrrolidin-1-yl)ethoxy)phenyl)-N-(piperidin-4-yl)-1H-indazol-3-amine [Example 95]”, the IC50 was found to be 2.4 µM.

As for `CN(CCCN)CCCNc1cc(-c2ccc(N3CCNCC3)cc2)nc(-c2ccc(N3CCNCC3)cc2)c1` [Example 1], the IC50 was 0.02 µM. The same measure, in the same setting: next, `COc1ccc(-c2cc(NCCCN(C)CCCN)cc(-c3ccc(N4CCNCC4)cc3)n2)cc1` [Example 2, N-{3-[(3-aminopropyl)(methyl)amino]propyl}-2-(4-methoxyphenyl)-6-[4-(piperazin-1-yl)phenyl]pyridin-4-amine]: 0.03 µM. For the compound `COc1ccc(-c2cc(NC3CCN(C4CCC(N)CC4)CC3)cc(-c3ccc(N4CCNCC4)cc3)n2)cc1` (stereo not shown) [Example 3], the IC50 was found to be 0.03 µM. Moreover, the “increase in potency versus Compound I (average)” value (same alpha-screen assay using bt-TAR32, side-by-side, three independent assays, average) amounted to 14 X. The “increase in potency versus Compound I” value (same alpha-screen assay using bt-TAR32, side-by-side, three independent assays, range) is on record as 11-18 X.

In the case of `CN(CCCN)CCCNc1cc(-c2ccc(N3CCNCC3)cc2)nc(-c2ccc(N3CCNCC3)nc2)c1` [Example 4], the IC50 is 0.04 µM. On the same count and under the same terms, as for `COc1ccc(-c2cc(NC3CCN(CCCN)CC3)cc(-c3ccc(N4CCN(C)CC4)cc3)n2)cc1` [Example 5, N-(1-(3-aminopropyl)piperidin-4-yl)-2-(4-methoxyphenyl)-6-(4-(4-methylpiperazin-1-yl)phenyl)pyridin-4-amine], the figure is 0.04 µM. Still for that read-out and setting: as for `COc1ccc(-c2cc(NCCCNC3CC(N)C3)cc(-c3ccc(N4CCNCC4)cc3)n2)cc1` (stereo not shown) [Example 6], the figure is 0.04 µM; as for `COc1ccc(-c2cc(NCCCN(C)CCCN)cc(-c3cccc(N4CCNCC4)c3)n2)cc1` [Example 7, N-{3-[(3-aminopropyl)(methyl)amino]propyl}-2-(4-methoxyphenyl)-6-[3-(piperazin-1-yl)phenyl]pyridin-4-amine], 0.05 µM. The same measure, in the same setting: next, `CN(CCCN)CCCNc1cc(-c2ccc(C3CCNCC3)cc2)nc(-c2ccc(N3CCNCC3)cc2)c1` [Example 8]: 0.05 µM; `COc1ccc(-c2cc(NC3CCNCC3)cc(-c3ccc(N4CCN(C)CC4)cc3)n2)cc1` [Example 9, 2-(4-methoxyphenyl)-6-(4-(4-methylpiperazin-1-yl)phenyl)-N-(piperidin-4-yl)pyridin-4-amine]: 0.05 µM. With `COc1ccc(-c2cc(NCCCN(C)CCCN)cc(-c3ccc(N4CCN(CC5CC5)CC4)cc3)n2)cc1` [Example 10], the IC50 came to 0.06 µM. The same measure, in the same setting: as for `CN(CCCN)CCCNc1cc(C#CC2CCNCC2)nc(-c2ccc(N3CCNCC3)cc2)c1` [Example 11, N-{3-[(3-aminopropyl)(methyl)amino]propyl}-2-[4-(piperazin-1-yl)phenyl]-6-[2-(piperidin-4-yl)ethynyl]pyridin-4-amine], the figure is 0.06 µM. On to `COc1ccc(-c2cc(NC3CCN(CC4CNC4)CC3)cc(-c3ccc(N4CCN(C)CC4)cc3)n2)cc1` [Example 12, N-(1-(azetidin-3-ylmethyl)piperidin-4-yl)-2-(4-methoxyphenyl)-6-(4-(4-methylpiperazin-1-yl)phenyl)pyridin-4-amine], for which the IC50 was 0.06 µM. The same measure, in the same setting: as for `COc1ccc(-c2cc(NCCCN(C)CCCN)cc(-c3cnn(C4CCN(C)CC4)c3)n2)cc1` [Example 13, N-{3-[(3-aminopropyl)(methyl)amino]propyl}-2-(4-methoxyphenyl)-6-[1-(1-methylpiperidin-4-yl)-1H-pyrazol-4-yl]pyridin-4-amine], the figure is 0.065 µM; as for `COc1ccc(-c2cc(NCCCN(C)CCCN)cc(-c3ccc(N4CCN(CC5CNC5)CC4)cc3)n2)cc1` [Example 14], 0.07 µM. Same read-out and setting: as for `CN(CCCN)CCCNc1cc(-c2ccc(CN3CCNCC3)cc2)nc(-c2ccc(N3CCNCC3)cc2)c1` [Example 16], the figure is 0.07 µM. Same read-out and setting: as for `COc1ccc(-c2cc(NCCCN3CCC(CN)CC3)cc(-c3ccc(N4CCNCC4)cc3)n2)cc1` [Example 18], the figure is 0.07 µM. Regarding `CNc1ccc(-c2cc(NCCCN(C)CCCN)cc(-c3ccc(OC)cc3)n2)cc1` [Example 19], the IC50 turned out to be 0.08 µM. As for `COc1ccc(-c2cc(NCCCN(C)CCCN)cc(-c3ccc(CN4CCNCC4)cc3)n2)cc1` [Example 20], the IC50 is 0.08 µM. Same read-out and setting: next, `COc1ccc(-c2cc(NCC3CCN(CC4CCNC4)C3)cc(-c3ccc(N4CCN(C)CC4)cc3)n2)cc1` (stereo not shown) [Example 21]: 0.08 µM.

Take `COc1ccc(-c2cc(NCC3CCN(C4CCNCC4)C3)cc(-c3ccc(N4CCN(C)CC4)cc3)n2)cc1` (stereo not shown) [Example 22]: the IC50 came out at 0.08 µM. The same measure, in the same setting: as for `COc1ccc(-c2cc(NCCCN(C)CCCN)cc(-c3ccc(N4CCN(C)CC4)cc3)n2)cc1` [Example 23], the figure is 0.08 µM. The same measure, in the same setting: as for `COc1ccc(-c2cc(NCCCN(C)CCCN)cc(-c3ccc(CN4CCCC4)cc3)n2)cc1` [Example 24], the figure is 0.09 µM; as for `COc1ccc(-c2cc(NCC3CCN(CC4CCNC4)CC3)cc(-c3ccc(N4CCN(C)CC4)cc3)n2)cc1` (stereo not shown) [Example 25], 0.09 µM; as for `COc1ccc(-c2cc(NCCCN3CCC(CN)C3)cc(-c3ccc(N4CCNCC4)cc3)n2)cc1` (stereo not shown) [Example 26], 0.1 µM. Same read-out and setting: next, `COc1ccc(-c2cc(NC3CCN(C4CCN(C)CC4)CC3)cc(-c3ccc(N4CCNCC4)cc3)n2)cc1` [Example 27, N-(2-(4-methoxyphenyl)-6-(4-(piperazin-1-yl)phenyl)pyridin-4-yl)-1′-methyl-[1,4′-bipiperidin]-4-amine]: 0.11 µM. Take `CN(CCCN)CCCNc1cc(-c2ccc(N3CCNCC3)cc2)nc(-c2ccc3c(c2)CCNC3)c1` [Example 28]: the IC50 was determined as 0.11 µM. On the same count and under the same terms, as for `COc1ccc(-c2cc(NCC3CCN(CC4CNC4)CC3)cc(-c3ccc(N4CCN(C)CC4)cc3)n2)cc1` [Example 29], the figure is 0.11 µM.

For the compound `COc1ccc(-c2cc(NC3CCN(CC4CCNC4)CC3)cc(-c3ccc(N4CCNCC4)cc3)n2)cc1` (stereo not shown) [Example 30], the IC50 worked out at 0.12 µM. The same measure, in the same setting: as for `COc1ccc(-c2cc(NCCCN)cc(-c3ccc(N4CCNCC4)cc3)n2)cc1` [Example 31, N^1-(2-(4-methoxyphenyl)-6-(4-(piperazin-1-yl)phenyl)pyridin-4-yl)propane-1,3-diamine], the figure is 0.12 µM; as for `COc1ccc(-c2cc(NCCCN(C)CCCN)cc(-c3ccc(N4CCN(C)CC4)cc3)n2)cc1` [Example 32], 0.13 µM; as for `COc1ccc(-c2cc(NCCCN(C)CCCN)cc(-c3ccc(-c4ccncc4)cc3)n2)cc1` [Example 33], 0.13 µM. As for `COc1ccc(-c2cc(NCC3CCN(CC4CNC4)C3)cc(-c3ccc(N4CCN(C)CC4)cc3)n2)cc1` (stereo not shown) [Example 34], the IC50 turned out to be 0.14 µM. Same read-out and setting: next, `COc1ccc(-c2cc(NCCCN(C)CCCN)cc(-c3ccc(OCCCN(C)C)nc3)n2)cc1` [Example 35, N-{3-[(3-aminopropyl)(methyl)amino]propyl}-6′-[3-(dimethylamino)propoxy]-6-(4-methoxyphenyl)-[2,3′-bipyridin]-4-amine]: 0.15 µM; `COc1ccc(-c2cc(NC3CCN(C4CCN(C)CC4)CC3)cc(-c3ccc(N4CCNCC4)cc3)n2)cc1` [Example 36]: 0.15 µM; `COc1ccc(-c2cc(NCCCN(C)CCCN)cc(OCCN3CCCC3)n2)cc1` [Example 37, N-{3-[(3-aminopropyl)(methyl)amino]propyl}-2-(4-methoxyphenyl)-6-[2-(pyrrolidin-1-yl)ethoxy]pyridin-4-amine]: 0.16 µM.

As to `COc1ccc(-c2cc(NCCCN(C)CCCN)cc(-c3ccc(N4CCN(C(=O)OC(C)(C)C)CC4)cc3)n2)cc1` [Example 38], the IC50 amounted to 0.17 µM. Same read-out and setting: next, `COc1ccc(-c2cc(NC3CCNCC3)cc(-c3ccc(N4CCNCC4)cc3)n2)cc1` [Example 39]: 0.19 µM; `COc1ccc(-c2cc(NCCCN(C)C)cc(-c3ccc(N4CCN(C)CC4)cc3)n2)cc1` [Example 40]: 0.21 µM. Still for that read-out and setting: next, `COc1ccc(-c2cc(N(C)C3CCNCC3)cc(-c3ccc(N4CCNCC4)cc3)n2)cc1` [Example 41]: 0.33 µM. The same measure, in the same setting: next, `COc1ccc(-c2cc(N(C)CCCN(C)C)cc(-c3ccc(N4CCN(C)CC4)cc3)n2)cc1` [Example 42, N-(3-(dimethylamino)propyl)-2-(4-methoxyphenyl)-N-methyl-6-(4-(4-methylpiperazin-1-yl)phenyl)pyridin-4-amine]: 0.46 µM; `COc1ccc(-c2cc(NCCCN)cc(-n3cc4c(n3)CNC4)n2)cc1` [Example 43]: 0.46 µM; `CN(C)CCCNc1cc(-c2ccc(N3CCNCC3)cc2)nc(-c2ccc(N3CCCC3)nc2)c1` [Example 44]: 7.95 µM. In the case of `CN1CCN(c2cncc(-c3cc(NCCCN)cc(-c4ccc(N5CCNCC5)cc4)n3)c2)CC1` [Example 45], the IC50 was found to be 1.07 µM. Same read-out and setting: as for `COc1ccc(-c2cc(NCCCN3CCCCC3)cc(-c3cc(OC)cc(OC)c3)n2)cc1` [Example 46], the figure is 6.93 µM; as for `COc1ccc(-c2cc(NCCCN(C)CCCN)cc(-c3c(C)noc3C)n2)cc1` [Example 47], 4.64 µM; as for `COc1ccc(-c2cc(NCCCc3cnc[nH]3)cc(-c3ccc(N4CCN(C)CC4)cc3)n2)cc1` [Example 48], 3.77 µM. Still for that read-out and setting: next, `CCOC(=O)N1CCC(Nc2cc(-c3ccc(OC)cc3)nc(-c3ccc(N4CCNCC4)cc3)c2)CC1` [Example 50]: 9.49 µM; `COc1cccc(-c2cc(NCCCN(C)CCCN)cc(-c3ccc(N4CCNCC4)cc3)n2)c1` [Example 51]: 0.64 µM.

On to `COc1ccc(-c2cc(NCCCN(C)CCCN)cc(-c3cnc(N4CCOCC4)s3)n2)cc1` [Example 52, N^1-(3-aminopropyl)-N^3-(2-(4-methoxyphenyl)-6-(2-morpholinothiazol-5-yl)pyridin-4-yl)-N^1-methylpropane-1,3-diamine], for which the IC50 was 5.58 µM. The same measure, in the same setting: next, `CNS(=O)(=O)c1ccc(-c2cc(NCCCN(C)CCCN)cc(-c3ccc(OC)cc3)n2)cc1` [Example 53]: 4.17 µM; `COc1ccc(-c2cc(NC3(CCN)CC3)cc(-c3ccc(N4CCNCC4)cc3)n2)cc1` [Example 54]: 3.56 µM. On the same count and under the same terms, next, `COc1ccc(-c2cc(NCC3CCNC3)cc(-c3ccc(N4CCN(C)CC4)cc3)n2)cc1` (stereo not shown) [Example 55]: 3.56 µM.
